ChEMBL document CHEMBL1142177, “Effects of age, gender, and race/ethnicity on the pharmacokinetics of posaconazole in healthy volunteers” (Antimicrob Agents Chemother, 2007)

Columns and labels:
Format in all cases: ADME, organism-based
[1] = tested on: Homo sapiens; experiment: AUC (0-12 hrs) in 18-45 yr old man plasma at 400 mg, po twice daily after 8 days; set-up: time < 12 hr, dose 400 mg, route oral; settings: in vivo
[2] = Tmax in >=65 yr old woman plasma at 400 mg, po twice daily after 8 days; settings: female, human
[3] = tested on: Homo sapiens; experiment: Apparent total clearance in black racial/ethnic human plasma at 400 mg, po twice daily after 8 days; settings: in vivo, 192 h
[4] = tested on: Homo sapiens; experiment: Apparent total clearance in >=65 yr old man plasma at 400 mg, po twice daily after 8 days; settings: in vivo, 192 h
[5] = tested on: Homo sapiens; experiment: Apparent total clearance in >=65 yr old human plasma at 400 mg, po twice daily after 8 days; settings: in vivo, 192 h
[6] = Half life in 18-45 yr old human plasma at 400 mg, po twice daily after 8 days
[7] = Cmax in 18-45 yr old human plasma at 400 mg, po twice daily after 8 days; set-up: dose 400 mg, route oral
[8] = tested on: Homo sapiens; experiment: AUC (0-12 hrs) in white racial/ethnic human plasma at 400 mg, po twice daily after 8 days; set-up: time < 12 hr, dose 400 mg, route oral; settings: in vivo
[9] = Tmax in 18-45 yr old man plasma at 400 mg, po twice daily after 8 days; settings: male, human
[10] = Tmax in black racial/ethnic human plasma at 400 mg, po twice daily after 8 days
[11] = Half life in >=65 yr old man plasma at 400 mg, po twice daily after 8 days; settings: male, human
[12] = Tmax in >=65 yr old man plasma at 400 mg, po twice daily after 8 days; settings: male, human
[13] = tested on: Homo sapiens; experiment: AUC (0-12 hrs) in >=65 yr old man plasma at 400 mg, po twice daily after 8 days; set-up: time < 12 hr, dose 400 mg, route oral; settings: in vivo
[14] = Half life in black racial/ethnic human plasma at 400 mg, po twice daily after 8 days
[15] = Half life in 18-45 yr old man plasma at 400 mg, po twice daily after 8 days; settings: male, human
[16] = Cmax in >=65 yr old woman plasma at 400 mg, po twice daily after 8 days; set-up: dose 400 mg, route oral; settings: female, human
[17] = tested on: Homo sapiens; experiment: AUC (0-12 hrs) in black racial/ethnic human plasma at 400 mg, po twice daily after 8 days; set-up: dose 400 mg, time < 12 hr, route oral; settings: in vivo
[18] = (§1) AUC (0-12 hrs) in >=65 yr old human plasma at 400 mg, po twice daily after 8 days
[19] = tested on: Homo sapiens; experiment: Apparent total clearance in 18-45 yr old man plasma at 400 mg, po twice daily after 8 days; settings: in vivo, 192 h
[20] = Cmax in >=65 yr old human plasma at 400 mg, po twice daily after 8 days; set-up: dose 400 mg, route oral
[21] = Cmax in 18-45 yr old man plasma at 400 mg, po twice daily after 8 days; set-up: dose 400 mg, route oral; settings: male, human
[22] = Tmax in 18-45 yr old human plasma at 400 mg, po twice daily after 8 days
[23] = Tmax in white racial/ethnic human plasma at 400 mg, po twice daily after 8 days
[24] = tested on: Homo sapiens; experiment: AUC (0-12 hrs) in 18-45 yr old human plasma at 400 mg, po twice daily after 8 days; set-up: dose 400 mg, time < 12 hr, route oral; settings: in vivo
[25] = tested on: Homo sapiens; experiment: Apparent total clearance in 18-45 yr old woman plasma at 400 mg, po twice daily after 8 days; settings: in vivo, 192 h
[26] = Tmax in >=65 yr old human plasma at 400 mg, po twice daily after 8 days
[27] = Cmax in black racial/ethnic human plasma at 400 mg, po twice daily after 8 days; set-up: dose 400 mg, route oral
[28] = Cmax in white racial/ethnic human plasma at 400 mg, po twice daily after 8 days; set-up: dose 400 mg, route oral
[29] = tested on: Homo sapiens; experiment: Apparent total clearance in white racial/ethnic human plasma at 400 mg, po twice daily after 8 days; settings: in vivo, 192 h
[30] = tested on: Homo sapiens; experiment: Apparent total clearance in 18-45 yr old human plasma at 400 mg, po twice daily after 8 days; settings: in vivo, 192 h
[31] = tested on: Homo sapiens; experiment: AUC (0-12 hrs) in 18-45 yr old woman plasma at 400 mg, po twice daily after 8 days; set-up: time < 12 hr, dose 400 mg, route oral; settings: in vivo
[32] = Half life in white racial/ethnic human plasma at 400 mg, po twice daily after 8 days
[33] = Tmax in 18-45 yr old woman plasma at 400 mg, po twice daily after 8 days; settings: female, human
[34] = tested on: Homo sapiens; experiment: Apparent total clearance in >=65 yr old woman plasma at 400 mg, po twice daily after 8 days; settings: in vivo, 192 h
[35] = Half life in >=65 yr old woman plasma at 400 mg, po twice daily after 8 days; settings: female, human
[36] = Cmax in 18-45 yr old woman plasma at 400 mg, po twice daily after 8 days; set-up: dose 400 mg, route oral; settings: female, human
[37] = tested on: Homo sapiens; experiment: as §1; set-up: time < 12 hr, dose 400 mg, route oral; settings: in vivo
[38] = Cmax in >=65 yr old man plasma at 400 mg, po twice daily after 8 days; set-up: dose 400 mg, route oral; settings: male, human
[39] = tested on: Homo sapiens; experiment: AUC (0-12 hrs) in >=65 yr old woman plasma at 400 mg, po twice daily after 8 days; set-up: dose 400 mg, time < 12 hr, route oral; settings: in vivo
[40] = Half life in 18-45 yr old woman plasma at 400 mg, po twice daily after 8 days; settings: female, human

With `CC[C@@H]([C@H](C)O)n1ncn(-c2ccc(N3CCN(c4ccc(OC[C@@H]5CO[C@@](Cn6cncn6)(c6ccc(F)cc6F)C5)cc4)CC3)cc2)c1=O` [POSACONAZOLE] the AUC [1] was 27784 ng·h/mL, the Tmax [2] was 6 h and the CL [3] was 37 L/h. The CL [4] was 28.1 L/h, the CL [5] was 26.7 L/h and the half-life [6] was 31.6 h. For the same compound, the Cmax [7] was 2610 ng/mL, the AUC [8] was 30091 ng·h/mL and the Tmax [9] was 4 h. The Tmax [10] was 5 h, the half-life [11] was 37.7 h and the Tmax [12] was 5 h. The AUC [13] was 32963 ng·h/mL, the half-life [14] was 32.2 h and the half-life [15] was 31.3 h. It also gave a Cmax [16] of 3500 ng/mL, an AUC [17] of 25107 ng·h/mL and a half-life [18] of 41.8 h. It also gave a CL [19] of 33.5 L/h, a Cmax [20] of 3370 ng/mL and a Cmax [21] of 2680 ng/mL. It also gave a Tmax [22] of 5 h, a Tmax [23] of 5 h and an AUC [24] of 26740 ng·h/mL. It also gave a CL [25] of 32.6 L/h, a Tmax [26] of 5 h and a Cmax [27] of 2400 ng/mL. The Cmax [28] was 2860 ng/mL, the CL [29] was 54 L/h and the CL [30] was 33.1 L/h. For the same compound, the AUC [31] was 25507 ng·h/mL, the half-life [32] was 37.3 h and the Tmax [33] was 5 h. It also gave a CL [34] of 25.4 L/h, a half-life [35] of 42.4 h and a Cmax [36] of 2520 ng/mL. For the same compound, the AUC [37] was 35444 ng·h/mL, the Cmax [38] was 3250 ng/mL and the AUC [39] was 37924 ng·h/mL. The half-life [40] was 31.9 h.
